Earlier results, collected in patent US20030124075A1, “Use of a composition containing at least one oxidation-sensitive hydrophilic active principle and at least one N-vinylimidazole polymer or copolymer” (L'OREAL, priority 2001, published 2003).

Tests used:
tyrosinase = biological target: T1, tyrosinase (Homo sapiens, UniProt P14679); conditions: J. Soc. Cosmet. Chem., 42, 1991
T1 sequence (P14679 19-529): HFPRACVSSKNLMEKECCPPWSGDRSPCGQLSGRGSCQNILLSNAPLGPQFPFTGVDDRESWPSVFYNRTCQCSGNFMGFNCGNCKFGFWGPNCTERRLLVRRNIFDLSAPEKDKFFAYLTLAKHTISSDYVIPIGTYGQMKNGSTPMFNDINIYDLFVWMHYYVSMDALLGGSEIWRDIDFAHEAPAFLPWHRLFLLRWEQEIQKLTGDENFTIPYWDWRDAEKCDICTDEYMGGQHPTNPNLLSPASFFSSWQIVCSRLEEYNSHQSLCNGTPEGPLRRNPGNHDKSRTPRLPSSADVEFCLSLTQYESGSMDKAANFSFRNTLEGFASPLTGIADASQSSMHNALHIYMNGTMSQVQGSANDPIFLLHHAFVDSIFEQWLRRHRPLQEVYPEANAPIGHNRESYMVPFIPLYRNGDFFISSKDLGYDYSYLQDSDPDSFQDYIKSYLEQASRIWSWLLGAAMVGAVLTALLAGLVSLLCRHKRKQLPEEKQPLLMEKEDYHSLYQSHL

[1] = J. Am. Acad. Dermatol., 1996, 34, 29-33
melanocytes = conditions: Pigment. Cell. Res., 13, 2000

inhibiting effect on tyrosinase (tyrosinase) | bioavailability [1] | Compound | dendricity of melanocytes (melanocytes)
has been demonstrated |  | O=C1O[C@H]([C@@H](O)CO)C(O)=C1O [ascorbic acid] | 
 | very low | O=C1O[C@H]([C@@H](O)CO)C([O-])=C1OP(=O)([O-])[O-].O=C1O[C@H]([C@@H](O)CO)C([O-])=C1OP(=O)([O-])[O-].[Mg+2].[Mg+2].[Mg+2] [magnesium ascorbyl phosphate] | can reduce the dendricity of melanocytes
